In patent publication US12202828B2, “Bicyclic heterocycle compounds and their uses in therapy” (ASTEX THERAPEUTICS LIMITED, priority 2013, dated 2025):
Values joined by “and” are separate entries in the source; they are usually repeats but may differ in a detail not shown here. Identical values can stand only once. Counter-ions that a name gives are not always drawn.

Columns and labels:
[1] = target: T1, XIAP-Caspase-9 in HEK293-XIAP-Caspase-9 cells (Homo sapiens, UniProt P98170); assay: HEK293-XIAP-Caspase-9 immunoprecipitation (IP) MSD assay; format: cell-based; details: compound 2 h at 37° C.; read-out: HEK293-X-C9 IP
T1 construct: FLAG; expressed in transfected cells
Method: Stable HEK293-XIAP-Caspase-9 cells were plated out into 96-well plates [200 μl/well at 1×10^6 cells/mL in cultured complete medium (DMEM+10% FBS+0.5 mg/mL Geneticin (Invitrogen)] and left overnight at 37° C. to recover. Compounds were added to duplicate wells in 0.1% DMSO for 2 h at 37° C. Cells were lysed in 50 μl 1×MSD lysis buffer (1% Triton X-100 in 20 mM Tris·Cl (pH 7.6), 150 mM NaCl including protease inhibitors) for 20 min rocking at room temperature. Streptavidin high bind MSD plate (L15SB-2) were coated with biotinylated anti-FLAG M2 antibody (Sigma F9291) at 25 μl/well with a 5 μg/mL dilution of antibody in PBS for 1 h, shaking; followed by blocking for 1 h with 150 μl 3% BSA/TBST. Cell lysate (25 μl) was added to the 96-well anti-FLAG coated MSD plate and placed on shaker for 4 h at room temperature. […] Plates were washed 4 times with 150 μl TBST, and 150 μl/well 1×MSD read buffer (R92TC-2) added before reading each plate.
EC50 values were determined from dose-response plots using nonlinear least-squares analysis.

[2] = target: T2, hERG ion channel (Homo sapiens, UniProt Q12809); assay: Population Patch Clamp (PPC) hERG assay in CHO K1 cells; format: cell-based
T2 construct: expressed in transfected cells; host or cells: CHO K1
Method: Inhibition of the hERG channel was measured by automated patch clamp assay in CHO K1 cells, stably transfected with the hERG ion channel. PPC measurements were performed using an IonWorks Quattro instrument (Molecular Devices Corporation, Union City, CA) using a 384 well PatchPlate (Molecular Devices Corporation) with 64 apertures per well. Each concentration of test compound was tested in duplicate wells. Amphotericin B was used to obtain electrical access to the cell interior at a final concentration of 200 μg/mL. Human ether-à-gogo related gene (hERG) currents were measured with a prepulse to +40 mV (2 s) from the holding potential of −80 mV, followed by a step to −50 mV (2 s) to elicit the deactivating tail currents, before returning to the holding potential for 1s. Compounds were incubated for 600s between the pre- and post-compound reads. The external recording solution used was 130 mM Na Gluconate, 20 mM NaCl, 4 mM KCl, 1 mM MgCl2, 1.8 mM CaCl2, 10 mM Hepes, 5 mM Glucose, pH to 7.3 with NaOH. All data were filtered for seal quality, seal drop, and current amplitude. The maximum current amplitude of the 3rd pulse tail current was calculated before (Pre) and after (Post) compound addition and the amount of block assessed by dividing the Post-compound current amplitude by the Pre-compound current amplitude.

T1 sequence (P98170 whole entry): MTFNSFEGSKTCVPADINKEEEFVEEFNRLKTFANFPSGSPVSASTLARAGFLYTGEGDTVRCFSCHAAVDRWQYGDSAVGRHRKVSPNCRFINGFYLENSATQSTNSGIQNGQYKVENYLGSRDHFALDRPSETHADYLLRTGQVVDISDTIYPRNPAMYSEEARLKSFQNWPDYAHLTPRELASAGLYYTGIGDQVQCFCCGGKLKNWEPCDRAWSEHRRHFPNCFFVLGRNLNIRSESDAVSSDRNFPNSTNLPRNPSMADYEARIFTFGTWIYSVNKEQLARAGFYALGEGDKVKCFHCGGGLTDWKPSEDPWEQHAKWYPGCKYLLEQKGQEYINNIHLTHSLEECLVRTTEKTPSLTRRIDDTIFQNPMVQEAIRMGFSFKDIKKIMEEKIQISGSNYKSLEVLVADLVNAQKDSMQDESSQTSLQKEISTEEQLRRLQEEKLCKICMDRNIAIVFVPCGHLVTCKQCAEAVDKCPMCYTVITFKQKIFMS
T2 sequence (Q12809 whole entry): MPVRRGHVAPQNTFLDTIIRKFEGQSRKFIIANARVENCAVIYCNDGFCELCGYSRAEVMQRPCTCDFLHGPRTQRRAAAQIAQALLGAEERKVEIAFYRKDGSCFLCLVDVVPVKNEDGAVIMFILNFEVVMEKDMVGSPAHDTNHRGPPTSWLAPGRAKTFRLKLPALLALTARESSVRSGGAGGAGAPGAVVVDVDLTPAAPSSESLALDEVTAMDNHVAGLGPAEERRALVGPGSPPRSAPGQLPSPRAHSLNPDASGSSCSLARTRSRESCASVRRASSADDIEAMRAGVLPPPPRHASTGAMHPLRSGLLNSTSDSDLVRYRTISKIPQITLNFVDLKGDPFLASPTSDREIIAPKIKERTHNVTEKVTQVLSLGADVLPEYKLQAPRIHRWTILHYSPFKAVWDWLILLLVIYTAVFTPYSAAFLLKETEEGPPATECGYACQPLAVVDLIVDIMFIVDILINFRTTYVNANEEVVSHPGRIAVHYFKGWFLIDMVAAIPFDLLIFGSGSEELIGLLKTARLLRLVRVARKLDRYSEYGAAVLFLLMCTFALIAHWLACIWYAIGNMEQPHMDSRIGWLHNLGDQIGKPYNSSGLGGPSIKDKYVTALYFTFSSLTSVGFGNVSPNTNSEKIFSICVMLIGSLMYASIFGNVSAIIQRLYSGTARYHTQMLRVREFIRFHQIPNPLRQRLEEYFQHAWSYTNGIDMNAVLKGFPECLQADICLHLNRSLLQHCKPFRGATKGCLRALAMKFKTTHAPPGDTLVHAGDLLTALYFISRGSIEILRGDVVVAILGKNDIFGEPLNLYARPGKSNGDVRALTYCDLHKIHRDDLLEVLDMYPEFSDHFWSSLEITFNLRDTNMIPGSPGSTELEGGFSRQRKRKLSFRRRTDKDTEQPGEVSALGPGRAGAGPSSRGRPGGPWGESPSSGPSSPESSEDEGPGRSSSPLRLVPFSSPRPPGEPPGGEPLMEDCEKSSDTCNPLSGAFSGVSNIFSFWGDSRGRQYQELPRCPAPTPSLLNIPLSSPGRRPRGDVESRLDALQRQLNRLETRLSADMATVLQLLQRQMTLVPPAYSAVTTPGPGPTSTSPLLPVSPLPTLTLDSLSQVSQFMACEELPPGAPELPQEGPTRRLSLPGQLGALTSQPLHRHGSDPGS

With `C[C@@H]1CN(CC(=O)N2CC(C)(C)c3nc(C(O)CO)c(Cc4ccc(F)cc4)cc32)[C@@H](CN2CCOC[C@H]2C)CN1` (single isomer, unassigned) [Example 13, 1-[5-((R or S)-1,2-Dihydroxyethyl)-6-[(4-fluorophenyl)methyl]-3,3-dimethyl-1H,2H,3H-pyrrolo [3,2-b]pyridin-1-yl]-2-[(2R,5R)-5-methyl-2-{[(3R)-3-methylmorpholin-4-yl]methyl}piperazin-1-yl] ethan-1-one dihydrochloride] the EC50 [1] was 4.4 nM and the “hERG PPC (PI)” value ([2]; @ 300 μM, dihydrochloride) was 46% @ 300.
For `C[C@@H]1CN(CC(=O)N2CC(C)(C)c3nc(C(O)CO)c(Cc4ccc(F)cc4)cc32)[C@@H](CN2CCOC[C@H]2C)CN1` (single isomer, unassigned) [Example 14, 1-[5-((R or S)-1,2-Dihydroxyethyl)-6-[(4-fluorophenyl)methyl]-3,3-dimethyl-1H,2H,3H-pyrrolo [3,2-b]pyridin-1-yl]-2-[(2R,5R)-5-methyl-2-{[(3R)-3-methylmorpholin-4-yl]methyl}piperazin-1-yl] ethan-1-one dihydrochloride], the EC50 [1] was 13 nM and the “hERG PPC (PI)” value ([2]; @ 300 μM, dihydrochloride) was 58% @ 300.
In the case of `C[C@@H]1CN(CC(=O)N2CC(C)(C)c3nc(C(O)CO)c(Cc4ccc(F)cc4)cc32)[C@@H](CN2[C@H](C)COC[C@H]2C)CN1` (single isomer, unassigned) [Example 21, 1-[5-((R or S)-1,2-Dihydroxyethyl)-6-[(4-fluorophenyl)methyl]-3,3-dimethyl-1H,2H,3H-pyrrolo[3,2-b]pyridin-1-yl]-2-[(2R,5R)-2-{[(3R,5R)-3,5-dimethylmorpholin-4-yl]methyl}-5-methylpiperazin-1-yl] ethan-1-one dihydrochloride], the EC50 [1] is reported as 2.1 nM and the “hERG PPC (PI)” value ([2]; @ 100 μM) is reported as 35% @ 100.
In the case of `COCC(O)c1nc2c(cc1Cc1ccc(F)cc1)N(C(=O)CN1C[C@@H](C)NC[C@@H]1CN1CCOC[C@H]1C)CC2(C)C` (single isomer, unassigned) [Example 26, 1-{6-[(4-Fluorophenyl)methyl]-5-((R or S)-1-hydroxy-2-methoxyethyl)-3,3-dimethyl-1H,2H,3H-pyrrolo[3,2-b]pyridin-1-yl}-2-[(2R,5R)-5-methyl-2-{[(3R)-3-methylmorpholin-4-yl]methyl}piperazin-1-yl] ethan-1-one trihydrochloride], the EC50 [1] is reported as 12 nM and the “hERG PPC (PI)” value ([2]; @ 31.3 μM) is reported as 41% @ 31.3.
`COC(CO)c1nc2c(cc1Cc1ccc(F)cc1)N(C(=O)CN1C[C@@H](C)NC[C@@H]1CN1CCOC[C@H]1C)CC2(C)C` (single isomer, unassigned) [Example 27, 1-{6-[(4-Fluorophenyl)methyl]-5-((R or S)-2-hydroxy-1-methoxyethyl)-3,3-dimethyl-1H,2H,3H-pyrrolo[3,2-b]pyridin-1-yl}-2-[(2R,5R)-5-methyl-2-{[(3R)-3-methylmorpholin-4-yl]methyl}piperazin-1-yl] ethan-1-one trihydrochloride] was tested, and the EC50 [1] was 6 nM and 9.9 nM and the “hERG PPC (PI)” value ([2]; @ 1000 μM) was 55% @ 1000.
With `COCC(O)c1nc2c(cc1Cc1ccc(F)cc1)N(C(=O)CN1C[C@@H](C)NC[C@@H]1CN1CCOC[C@H]1C)CC2(C)C` (single isomer, unassigned) [Example 28, 1-{6-[(4-Fluorophenyl)methyl]-5-((R or S)-1-hydroxy-2-methoxyethyl)-3,3-dimethyl-1H,2H,3H-pyrrolo[3,2-b]pyridin-1-yl}-2-[(2R,5R)-5-methyl-2-{[(3R)-3-methylmorpholin-4-yl]methyl}piperazin-1-yl] ethan-1-one trihydrochloride] the EC50 [1] was 4.4 nM and the “hERG PPC (PI)” value ([2]; @ 125 μM) was 45% @ 125.
`COC(CO)c1nc2c(cc1Cc1ccc(F)cc1)N(C(=O)CN1C[C@@H](C)NC[C@@H]1CN1CCOC[C@H]1C)CC2(C)C` (single isomer, unassigned) [Example 29, 1-{6-[(4-Fluorophenyl)methyl]-5-((R or S)-2-hydroxy-1-methoxyethyl)-3,3-dimethyl-1H,2H,3H-pyrrolo[3,2-b]pyridin-1-yl}-2-[(2R,5R)-5-methyl-2-{[(3R)-3-methylmorpholin-4-yl]methyl}piperazin-1-yl] ethan-1-one] was tested, and the EC50 [1] was 13 nM and the “hERG PPC (PI)” value ([2]; @ 500 μM) was 53% @ 500.
With `C[C@@H]1CN(CC(=O)N2CC(C)(C)c3nc(CO)c(Cc4ccccc4F)cc32)[C@@H](CN2CCOC[C@H]2C)CN1` [Example 4, 1-{6-[(2-Fluorophenyl)methyl]-5-(hydroxymethyl)-3,3-dimethyl-1H,2H,3H-pyrrolo[3,2-b]pyridin-1-yl}-2-[(2R,5R)-5-methyl-2-{[(3R)-3-methylmorpholin-4-yl]methyl}piperazin-1-yl] ethan-1-one dihydrochloride] the EC50 [1] was 2.6 nM and the “hERG PPC (PI)” value ([2]; @ 30 μM) was 47% @ 30.
For `C[C@@H]1CN(CC(=O)N2CC(C)(C)c3[nH]c(=O)c(Cc4ccc(F)cc4)cc32)[C@@H](CN2CCOC[C@H]2C)CN1` [Example 5, 6-[(4-Fluorophenyl)methyl]-3,3-dimethyl-1-{2-[(2R,5R)-5-methyl-2-{[(3R)-3-methylmorpholin-4-yl]methyl}piperazin-1-yl]acetyl}-1H,2H,3H,4H,5H-pyrrolo[3,2-b]pyridin-5-one dihydrochloride], the EC50 [1] was 5.3 nM and the “hERG PPC (PI)” value ([2]; @ 300 μM) was 42% @ 300.
With `C[C@@H]1CN(CC(=O)N2CC(C)(C)c3c2cc(Cc2ccc(F)cc2)c(=O)n3C)[C@@H](CN2CCOC[C@H]2C)CN1` [Example 6, 6-[(4-Fluorophenyl)methyl]-3,3,4-trimethyl-1-{2-[(2R,5R)-5-methyl-2-{[(3R)-3-methylmorpholin-4-yl]methyl}piperazin-1-yl]acetyl}-1H,2H,3H,4H,5H-pyrrolo[3,2-b]pyridin-5-one dihydrochloride] the EC50 [1] was 2 nM and the “hERG PPC (PI)” value ([2]; @ 250 μM) was 56% @ 250.
With `C[C@@H]1CN(CC(=O)N2CC(C)(C)c3[nH]c(=O)c(Cc4ccc(F)cc4F)cc32)[C@@H](CN2[C@H](C)COC[C@H]2C)CN1` [Example 7, 6-[(2,4-Difluorophenyl)methyl]-1-{2-[(2R,5R)-2-{[(3R,5R)-3,5-dimethylmorpholin-4-yl]methyl}-5-methylpiperazin-1-yl]acetyl}-3,3-dimethyl-1H,2H,3H,4H,5H-pyrrolo[3,2-b]pyridin-5-one dihydrochloride] the EC50 [1] was 1.2 nM and the “hERG PPC (PI)” value ([2]; @ 100 μM) was 33% @ 100.
With `C[C@@H]1CN(CC(=O)N2CC(C)(C)c3[nH]c(=O)c(Cc4ccc(F)cc4F)cc32)[C@@H](CN2CCOC[C@H]2C)CN1` [Example 8, 6-[(2,4-Difluorophenyl)methyl]-3,3-dimethyl-1-{2-[(2R,5R)-5-methyl-2-{[(3R)-3-methylmorpholin-4-yl]methyl}piperazin-1-yl]acetyl}-1H,2H,3H,4H,5H-pyrrolo[3,2-b]pyridin-5-one dihydrochloride] the EC50 [1] was 5.4 nM and the “hERG PPC (PI)” value ([2]; @ 300 μM) was 39% @ 300.
`C[C@@H]1CN(CC(=O)N2CC(C)(C)c3c2cc(Cc2ccccc2F)c(=O)n3C)[C@@H](CN2CCOC[C@H]2C)CN1` [Example 9, 6-[(2-Fluorophenyl)methyl]-3,3,4-trimethyl-1-{2-[(2R,5R)-5-methyl-2-{[(3R)-3-methylmorpholin-4-yl]methyl}piperazin-1-yl]acetyl}-1H,2H,3H,4H,5H-pyrrolo[3,2-b]pyridin-5-one dihydrochloride] was tested, and the EC50 [1] was 3 nM and the “hERG PPC (PI)” value ([2]; @ 300 μM) was 50% @ 300.
In the case of `C[C@@H]1CN(CC(=O)N2CC(C)(C)c3nc(CO)c(Cc4ccc(F)cc4F)cc32)[C@@H](CN2CCOC[C@H]2C)CN1` [Example 11, 1-{6-[(2,4-Difluorophenyl)methyl]-5-(hydroxymethyl)-3,3-dimethyl-1H,2H,3H-pyrrolo[3,2-b]pyridin-1-yl}-2-[(2R,5R)-5-methyl-2-{[(3R)-3-methylmorpholin-4-yl]methyl}piperazin-1-yl] ethan-1-one dihydrochloride], the EC50 [1] is reported as 1.1 nM and the IC50 ([2]; CHO K1 cells stably transfected with hERG) is reported as 51 µM.
Compound `C[C@@H]1CN(CC(=O)N2CC(C)(C)c3c2cc(Cc2ccc(F)cc2F)c(=O)n3C)[C@@H](CN2C[C@H](C)OC[C@H]2C)CN1` [Example 25, 6-[(2,4-Difluorophenyl)methyl]-1-{2-[(2R,5R)-2-{[(2S,5R)-2,5-dimethylmorpholin-4-yl]methyl}-5-methylpiperazin-1-yl]acetyl}-3,3,4-trimethyl-1H,2H,3H,4H,5H-pyrrolo[3,2-b]pyridin-5-one dihydrochloride] has an EC50 [1] of 2.7 nM.
